Measured values as given in patent US20210330611A1, “THERAPY FOR NEUROLOGICAL DISEASES/DISORDERS” (priority 2020, published 2021).
Counter-ions that a name gives are not always drawn. Like-named read-outs stand apart in the source and are kept apart here.

How the values were obtained:
[1] = system: LPS-induced microglia activation; assay: Image-based assay of LPS-induced microglia activation (HTS and dose response); type: cell-based, rat; conditions: for inhibition at 10 µM: 48 h, read-out: LPS % inhibition
primary rat microglia [2] = assay: Cell toxicity (dead cells, size <150 μm2) in coated fibrin (cFib) assay; conditions: primary microglia HTS, fibrin stimulation;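 note: share of dead cells sized under 150 µm2 at 10 µM in fibrin-stimulated microglia HTS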
[3] = system: fibrin-induced microglia activation; assay: Image-based assay of fibrin-induced microglia activation (HTS and dose response); type: cell-based, rat; conditions: for inhibition at 10 µM: read-out: Fibrin % inhibition
primary rat microglia [4] = assay: Cell toxicity (dead cells, size <150 μm2) in LPS assay; conditions: primary microglia HTS, LPS stimulation
[5] = system: fibrin- and LPS-induced microglia activation; assay: cells; type: cell-based, rat
[6] = Rattus norvegicus, Microglia, primary microglia HTS, LPS stimulation, activation = cell size >800 μm2
[7] = Rattus norvegicus, Microglia, primary microglia HTS, fibrin stimulation, activation = cell size >800 μm2
[8] = quadrant by fibrin and LPS inhibition in HTS of 1907 compounds
[9] = primary microglia HTS, LPS stimulation, activation = cell size >800 μm2
[10] = Rattus norvegicus, Microglia, primary microglia HTS, LPS stimulation, increased cell size (>800 μm^2) as marker of activation
[11] = decreased size (<150 μm^2) as marker of toxicity
[12] = Rattus norvegicus, Microglia, primary microglia HTS, fibrin stimulation, increased cell size (>800 μm^2) as marker of activation

| Compound | inhibition at 10 µM [1, 6] [%] | Fibrin % cell toxicity (primary rat microglia [2]; toxicity = cell size <150 μm2) [%] | inhibition at 10 µM [3, 7] [%] | LPS % cell toxicity (primary rat microglia [4]; toxicity = cell size <150 μm2) [%] | Quadrant (FIG. 5b) [5, 8] | other results |
| --- | --- | --- | --- | --- | --- | --- |
| Cc1ccc(S(=O)(=O)NC(=O)NN2CC3CCCC3C2)cc1 (centres unmarked) [Gliclazide] | 20 | 1 | 1 | 0 | Q4 |  |
| O=C1O[C@H](CO)[C@@H](O)[C@H](O)[C@H]1O [Gluconolactone] | 17 | 0 | -1 | 0 | Q4 |  |
| Cl.N[C@H]1C(O)O[C@H](CO)[C@@H](O)[C@@H]1O (some centres unmarked) [Glucosamine Hydrochloride] | 19 | 1 | -2 | 0 | Q4 |  |
| COc1ccccc1O [Guaiacol] | 11 | 0 | -51 | 0 | Q4 |  |
| COc1ccccc1OCC(O)CO (centres unmarked) [Guaifenesin] | 11 | 0 | -15 | 0 | Q4 |  |
| N=C(N)N/N=C/c1c(Cl)cccc1Cl [Guanabenz Acetate] |  | 0 |  | 0 | Q4 | LPS % inhibition [1, 9]: −2%; Fibrin % inhibition ([3]; primary microglia HTS, fibrin stimulation, activation = cell size >800 μm2): −46% |
| N=C(N)N/N=C/c1c(Cl)cccc1Cl [Guanabenz] |  | 1 | -46 | 0 | Q4 | LPS % inhibition [1, 9]: −18% |
| N=C(N)NCC1COC2(CCCCC2)O1 (centres unmarked) [Guanadrel] | 5 | 1 | -1 | 0 | Q4 |  |
| N=C(N)N [Guanidine] | -1 | 0 | -32 | 0 | Q4 |  |
| O=C(O)c1ccc(S(=O)(=O)N(Cl)Cl)cc1 [Halazone] | 19 | 0 | -13 | 0 | Q4 |  |
| CC1(C)O[C@@H]2C[C@H]3[C@@H]4CCC5=CC(=O)CC[C@]5(C)[C@@]4(F)[C@@H](O)C[C@]3(C)[C@]2(C(=O)CCl)O1 [Halcinonide] |  |  |  |  | Q2 | inhibition at 10 µM [1, 10]: 95%; Fibrin % cell toxicity (primary rat microglia [2]; [11]): 8%; inhibition at 10 µM [3, 12]: 103%; LPS % cell toxicity (primary rat microglia [4]; [11]): 2% |
| Clc1cc(Cl)c(OCC#CI)cc1Cl [Haloprogin] |  |  |  |  | Q2 | inhibition at 10 µM [1, 10]: 106%; Fibrin % cell toxicity (primary rat microglia [2]; [11]): 42%; inhibition at 10 µM [3, 12]: 78%; LPS % cell toxicity (primary rat microglia [4]; [11]): 70% |
| CC(N)CCCC(C)(C)O (centres unmarked) [Heptaminol Hydrochloride] | 13 | 1 | -19 | 0 | Q4 |  |
| CC1(C)S[C@@H]2[C@H](N3C(=O)[C@@H](c4ccccc4)NC3(C)C)C(=O)N2[C@H]1C(=O)O [Hetacillin Potassium] | 15 | 0 | -15 | 1 | Q4 |  |
| Oc1c(Cl)cc(Cl)c(Cl)c1Cc1c(O)c(Cl)cc(Cl)c1Cl [Hexachlorophene] |  | 0 |  | 0 | Q4 | inhibition at 10 µM ([1]; Rattus norvegicus, Microglia): 15%; inhibition at 10 µM ([3]; Rattus norvegicus, Microglia): -19% |
| C[N+](C)(C)CCCCCC[N+](C)(C)C [Hexamethonium] |  |  |  |  | Q2 | inhibition at 10 µM [1, 10]: 100%; Fibrin % cell toxicity (primary rat microglia [2]; [11]): 9%; inhibition at 10 µM [3, 12]: 108%; LPS % cell toxicity (primary rat microglia [4]; [11]): 2% |
| C1N2CN3CN1CN(C2)C3 [Hexamethylenetetramine] | 20 | 1 | -9 | 0 | Q4 |  |
| CC[C@H](c1ccc(O)cc1)[C@@H](CC)c1ccc(O)cc1 [Hexestrol] | 7 | 1 | -29 | 0 | Q4 |  |
| CCCCC(CC)CN1CN(CC(CC)CCCC)CC(C)(N)C1 (centres unmarked) [Hexetidine] | 19 | 1 | -85 | 0 | Q4 |  |
| CCCCCCc1ccc(O)cc1O [Hexylresorcinol] | 18 | 1 | -6 | 0 | Q4 |  |
| C[N+]1(C)[C@@H]2CC[C@H]1C[C@@H](OC(=O)C(O)c1ccccc1)C2 (some centres unmarked) [Homatropine Methylbromide] | 12 | 1 | -18 | 0 | Q4 |  |
| CC[n+]1c(-c2ccccc2)c2cc(N)ccc2c2ccc(N)cc21 [Homidium Bromide] |  |  |  |  | Q2 | inhibition at 10 µM [1, 10]: 103%; Fibrin % cell toxicity (primary rat microglia [2]; [11]): 17%; inhibition at 10 µM [3, 12]: 84%; LPS % cell toxicity (primary rat microglia [4]; [11]): 9% |
| COC(=O)C[C@](O)(CCCC(C)(C)O)C(=O)O[C@@H]1C(OC)=C[C@]23CCCN2CCc2cc4c(cc2[C@H]13)OCO4 [Homoharringtonie] |  |  |  |  | Q2 | LPS % inhibition ([1]; primary microglia HTS, LPS stimulation, increased cell size (>800 μm^2) as marker of activation): 106%; Fibrin % cell toxicity (primary rat microglia [2]; [11]): 90%; Fibrin % inhibition ([3]; primary microglia HTS, fibrin stimulation, increased cell size (>800 μm^2) as marker of activation): 106%; LPS % cell toxicity (primary rat microglia [4]; [11]): 67% |
| CN1CCc2cc3c(cc2C1O)OCO3 (centres unmarked) [Hydrastinine Hydrochloride] | 22 | 1 | 0 | 0 | Q4 |  |
| NS(=O)(=O)c1cc2c(cc1Cl)NCNS2(=O)=O [Hydrochlorothiazide] | 21 | 0 | -29 | 0 | Q4 |  |
| CC(=O)OCC(=O)[C@@]1(O)CC[C@H]2[C@@H]3CCC4=CC(=O)CC[C@]4(C)[C@H]3[C@@H](O)C[C@@]21C [Hydrocortisone acetate, reference compound] |  |  |  |  | Q2 | inhibition at 10 µM [1, 10]: 89%; IC50 ([1]; Rattus norvegicus, Microglia, Table 7, read-out: LPS_IC50): 17 nM; Fibrin % cell toxicity (primary rat microglia [2]; [11]): 4%; IC50 ([3]; Rattus norvegicus, Microglia, Table 7, read-out: fib_IC50): 10 nM; inhibition at 10 µM [3, 12]: 112%; LPS % cell toxicity (primary rat microglia [4]; [11]): 4%; Quadrant (FIG. 5b) ([5]; Table 2, screen at 10 μM): Q2; Activity ([5]; Table 7, fib = fibrin, LPS, tox = toxicity): fib/LPS |
| NS(=O)(=O)c1cc2c(cc1C(F)(F)F)NCNS2(=O)=O [Hydroflumethiazide] | 11 | 0 | -9 | 0 | Q4 |  |
| CC[C@H]1CN2CC[C@H]1C[C@@H]2[C@@H](O)c1ccnc2ccc(OC)cc12 [Hydroquinidine] | 18 | 1 | -8 | 0 | Q4 |  |
| CC(N)Cc1ccc(O)cc1 (centres unmarked) [Hydroxyamphetamine] | -2 | 1 | -12 | 0 | Q4 |  |
